Columns and labels:
[1] = system: male Sprague Dawley rat (SD rat); experiment: Evaluation of the effect of preventing nerve damage: transient focal MCAO/R model, infarct volume by TTC staining; assay type: in vivo; conditions: 50 mg/kg intraperitoneal injection once 10 minutes before, 1 hour ischemia, 24 hours blood reperfusion, sum of seven brain slices, 5 SD rats
Description: The specific solvent was made of dimethyl sulfoxide (DMSO), cremophor EL (CrEL) and water, with the relative volume ratio of 10:20:70, respectively. Besides the foresaid experimental groups, only pure solvent used was treated as vehicle group, and a sham group, which was not administrated with any compound or solvent or with nylon monofilament to cause obstruction and ischemia, was also included.
In this test example, transient focal Middle Cerebral Artery Occlusion/ Reperfusion model (MCAO/R model) was adopted to simulate ischemic stroke for evaluating the subsequent nerve damage. Specifically, male Sprague Dawley rat (SD rat) was adopted and anaesthetized with 2% isoflurane, and then the right common carotid artery, external carotid artery and internal carotid artery were distinguished among them from the neck.
Next, a nylon monofilament with length of 22 millimeters (mm), size number of 4/0 and capped with polysiloxane was inserted into the external carotid artery and along with the […] of Willis to induce obstruction and ischemia in the middle cerebral artery. After causing obstruction and ischemia for 1 hour, the nylon monofilament was removed to allow the blood recirculated to the brain, in other words, to undergo blood reperfusion.
After blood reperfusion for 24 hours, the rat was sacrificed and the brain thereof was placed into a cooled 0.95% saline. Then, 1 mm part of the brain tip was excised, and the rest of the brain was cut in coronal section to obtain seven slices of brain tissue with each thickness of 2 mm. Next, those sliced brain tissues were infiltrated with 1% 2,3,5-triphenyltetrazolium chloride (TTC) for 30-minute at room temperature (about 25°C to 27°C). Afterward, the sliced brain tissues were […] with a 4% […] solution, and then MacroPATH Digital Imaging System was used to record the images and the obtained images were analyzed by ImageJ 1.52a to count the infarct volume percent, which could represent the degree of nerve damage. The foresaid infarct volume percent was obtained by adding the values acquired by multiplying the proportion of infarct area of each sliced brain tissue with their thickness, and the proportion of infarct area was calculated by the equation: (B-A)/B×100%; wherein, "A" represented the undamaged area in the damaged cerebral hemisphere on the right side, and "B" represented the total area of the undamaged cerebral hemisphere on the left side.
Here, 10 minutes before processing the foresaid MCAO/R model, the rats were administrated with the test samples of Examples 1 to 15 by intraperitoneal injection for one time. The administration amount was 50 milligrams per kilogram (mg/kg) or 5 ml/kg. The actual applied amount was depended on the weight of the rates. The treatment for the vehicle group was the same as that of the experimental group except only solvent was used.
The results of TTC staining of the seven sliced brain tissues of the groups of Examples 1 to 15, the vehicle group and the sham group were shown in FIG. 2. 5 SD rats were used for each experimental groups of Examples 1 to 15 and the vehicle group, while only 3 SD rats were used for the sham group. Table 2: The total infarct volume percent of Examples 1 to 15, the vehicle group, and the sham group.

[2] = system: male Sprague Dawley rat (SD rat); experiment: Neurobehavioral evaluation (Bederson classification) after MCAO/R; conditions: Bederson grade 0 to 4, 50 mg/kg intraperitoneal before MCAO/R

COc1cc(C(=O)NCCCC(=O)O)c(OC)c2c1OCO2 [Example 7]
Total infarct volume percent (%) [1]: 15.17% | Grade, Time point of 0.5-hour after blood reperfusion [2]: 2.60 | Grade, Time point of 1.5-hour after blood reperfusion [2]: 2.40 | Grade, Time point of 24-hour after blood reperfusion ([2]; 50 mg/kg): 1.60

CCCCc1c(C)c(OC)c2c(c1OC)OCO2 [Example 2]
Total infarct volume percent (%) [1]: 30.75%

COc1cc(C(=O)Nc2ccc(O)cc2)c(OC)c2c1OCO2 [Example 9]
Total infarct volume percent (%) [1]: 14.52% | Grade, Time point of 0.5-hour after blood reperfusion [2]: 2.80 | Grade, Time point of 1.5-hour after blood reperfusion [2]: 2.40 | Grade, Time point of 24-hour after blood reperfusion ([2]; 50 mg/kg): 1.40

COc1cc(CNC(C)=O)c(OC)c2c1OCO2 [Example 5]
Total infarct volume percent (%) [1]: 20.2% | Grade, Time point of 0.5-hour after blood reperfusion [2]: 2.40 | Grade, Time point of 1.5-hour after blood reperfusion [2]: 2.40 | Grade, Time point of 24-hour after blood reperfusion [2]: 2.40

COc1cc(C(=O)NCCC(=O)O)c(OC)c2c1OCO2 [Example 10]
Total infarct volume percent (%) [1]: 21.76% | Grade, Time point of 0.5-hour after blood reperfusion [2]: 2.60 | Grade, Time point of 1.5-hour after blood reperfusion [2]: 2.40 | Grade, Time point of 24-hour after blood reperfusion [2]: 2.20

COc1cc(C(=O)Nc2c(C)n(C)n(-c3ccccc3)c2=O)c(OC)c2c1OCO2 [Example 13]
Total infarct volume percent (%) [1]: 32.53%

COc1cc(C(=O)Nc2sc(C)cc2C#N)c(OC)c2c1OCO2 [Example 14]
Total infarct volume percent (%) [1]: 34.77%

CCOC(=O)c1ccc(NC(=O)c2cc(OC)c3c(c2OC)OCO3)cc1 [Example 15]
Total infarct volume percent (%) [1]: 17.76% | Grade, Time point of 0.5-hour after blood reperfusion [2]: 2.80 | Grade, Time point of 1.5-hour after blood reperfusion [2]: 2.60 | Grade, Time point of 24-hour after blood reperfusion [2]: 2.00

COc1cc(C(=O)NCCc2ccc(O)c(O)c2)c(OC)c2c1OCO2 [Example 8]
Total infarct volume percent (%) [1]: 22.39% | Grade, Time point of 0.5-hour after blood reperfusion [2]: 2.40 | Grade, Time point of 1.5-hour after blood reperfusion [2]: 2.60 | Grade, Time point of 24-hour after blood reperfusion [2]: 2.00

COc1cc(C(=O)N[C@@H](C)C(=O)O)c(OC)c2c1OCO2 [Example 11]
Total infarct volume percent (%) [1]: 15.93% | Grade, Time point of 0.5-hour after blood reperfusion [2]: 2.80 | Grade, Time point of 1.5-hour after blood reperfusion [2]: 2.00 | Grade, Time point of 24-hour after blood reperfusion ([2]; 50 mg/kg): 1.60

COc1ccc(C[C@@H](C)NC(=O)c2cc(OC)c3c(c2OC)OCO3)cc1S(N)(=O)=O [Example 6]
Total infarct volume percent (%) [1]: 19.67% | Grade, Time point of 0.5-hour after blood reperfusion [2]: 2.60 | Grade, Time point of 1.5-hour after blood reperfusion [2]: 2.40 | Grade, Time point of 24-hour after blood reperfusion [2]: 2.20

COc1cc(C(=O)OCc2ccccc2)c(OC)c2c1OCO2 [Example 12]
Total infarct volume percent (%) [1]: 35.67%
